Laboratory results: PMC6447882, “Pharmacokinetics and Biodistribution of Pegylated Methotrexate after IV Administration to Mice” (Iranian Journal of Pharmaceutical Research : IJPR, 2018)
In brackets after ≈: the same amount, converted by molar mass. Several values for one entry are separate records, joined by “and”; a condition that tells them apart may be missing. Equal values may be shown once. Entries after “also recorded” stand apart in the source; their conditions may differ. Read-outs that look alike come from different tables or passages of the source.

Assays:
[1] = parameters: method as in PMID 18346806, PMID 12506184; conditions: drug linked to PEG40000 vs free drug; cited from earlier work
plasma proteins = conditions: cited from earlier work
in vivo = conditions: mice; for half-life: iv
Description: A portion of 500 μL acetonitrile was added to a mixture of 225 μL plasma and 25 μL MTX or MTX-PEG5000 solution (100 µg/mL) and vortexed. Precipitated proteins were separated by centrifuging the mixture at 12000 rpm for 5 min. The supernatant was evaporated by a Multi-Evaporator (VLM EC 1, Italy) at 50 °C using nitrogen gas. The residue was dissolved in 150 μL mobile phase and injected to HPLC. The standards were prepared in triplicate at eight concentrations ranging from 0.25 to 100 µg/mL for MTX and from 1 to 1000 µg/mL for MTX-PEG5000.
A Knauer HPLC system consisted of a wellchrom pump k-1001, equipped with k-2701, DAD k-2700 detector was used. Chromatography was performed on a PerfectSilTarget® 100 HPLC Column (C8, 150 × 4.6 mm, 5 µm). For analysis of MTX, mobile phase consisted of phosphate-citrate buffer (pH 5): acetonitrile (88:12, v/v) and was delivered isocratically at a flow rate of 1 mL/min.
The column eluent was monitored using UV detector at the wavelength of 302 nm. For analysis of MTX-PEG5000, the mobile phase consisted of phosphate-citrate buffer (pH 5): acetonitrile (55:45, v/v) and was delivered isocratically at a flow rate of 0.5 mL/min. The column eluent was monitored using UV detector at the wavelength of 342 nm.
(§1) IV bolous injections of MTX and MTX-PEG5000 (70 mg/kg) were administered to mice through marginal veins by insulin syringe (gauge 27). At least three mice were sacrificed at each time point. The animals (n = 200) at dosing were in the range of 2-4 weeks of age and their mean weight was 20 ± 5 g. The blood samples were collected at 5, 10, 15, 30, 45, 60, 90, and 120 min intervals for MTX and for at 5, 10, 15, 30, 45, 60, 90, 120, 180, 240, 300, and 360 min intervals for MTX-PEG5000. At each time point, the blood samples were collected from at least three mice and after centrifuging (10000 rpm, for 5 min), the plasma samples were separated and immediately frozen at -20 °C. Then, the mice were cervically dislocated and their organs including heart, liver, spleen, kidney, lung, brain, and small intestine were removed and after washing with normal saline, were dried by facial tissue and exactly weighed. Whole removed organs and 0.25 to 0.5 g of liver and small intestine were minced and homogenized in a certain volume of normal saline using homogenizer IKA basic T25 (Germany). The organs were collected from MTX injected animals (10, 60 and 120 min for all organs and 5, 10, 30, 60 and 120 for liver tissue) and at 2, 6, 12, 24, and 48 h for mice administered by MTX-PEG5000.
The logarithm of plasma concentrations of MTX and MTX-PEG5000 were plotted vs. time. […] The pharmacokinetic parameters were obtained by fitting data to two-compartmental model equation (C = Ae^-αt + Be^-βt) and noncompartmental model using Excel 2010 (33).

[2] = parameters: method as in earlier work; conditions: cited from earlier work
[3] = Biodistribution (tissue distribution) after IV injection to mice; assay type: in vivo; conditions: iv 70 mg/kg
Description: For preparation of MTX tissue samples, one volume of tissue homogenate in normal saline was mixed with two volume acetonitrile and centrifuged in 12000 rpm for 5 min. The supernatant was removed and evaporated to dryness under nitrogen gas. The residue was reconstituted in 250 μL mobile phase and was injected to HPLC. For preparation of MTX-PEG5000 tissue samples, one volume of tissue homogenate in normal saline was mixed with two volumes of dichloromethane and shaked for 15 min. After centrifugation (5000 rpm), the lower organic phase was aspirated and dehydrated by Na2SO4 and after dissolving in 200 μL mobile phase, was injected to HPLC. The standard solutions were prepared in triplicate at concentration levels ranging from of 1 to 50 µg/mL for MTX and 2.5 to 500 µg/mL for MTX-PEG5000.
The same HPLC instrument was utilized for analysis of MTX and MTX-PEG tissue samples. The precision and accuracy of the method were examined by adding known amounts of MTX (0. 25, 2.5 and 10 µg/mL) and MTX-PEG5000 (5, 50 and 500 µg/mL) to pool tissue (quality control) samples. The other steps were performed as plasma samples.
as §1, with “Whole removed organs and 0.25 to 0.5 g of liver and small intestine were minced and homogenized in a certain volume of normal saline using homogenizer IKA basic T25 (Germany). The organs were collected from MTX injected animals (10, 60 and 120 min for all organs and 5, 10, 30, 60 and 120 for liver tissue) and at 2, 6, 12, 24, and 48 h for mice administered by MTX-PEG5000.” left out

[4] = relatively alkaline pH of plasma; no reference given; cited from earlier work
[5] = parameters: method as in PMID 18346806; conditions: cited from earlier work
[6] = parameters: method as in PMID 18346806, PMID 12506184; conditions: conjugation to PEG5000; cited from earlier work
[7] = iv 70 mg/kg, two-compartmental model, n = 3
[8] = iv 70 mg/kg, two-compartmental model, n = 3, 70 mg/kg

Compound: CC[C@@]1(O)C(=O)OCc2c1cc1n(c2=O)Cc2cc3ccccc3nc2-1 [Campthotecin]
- T1/2 β [1]: 1320 min

Compound: CN(Cc1cnc2nc(N)nc(N)c2n1)c1ccc(C(=O)N[C@@H](CCC(=O)O)C(=O)O)cc1 [MTX, Methotrexate]
- Protein binding (plasma proteins): 30-50%
- Portion of the drug bound to plasma proteins (plasma proteins; no reference given): 50%
- AUMC (in vivo; iv 70 mg/kg, n = 3): 24.63 ± 2.84 mg.mL-.min2
- Vc (in vivo; iv 70 mg/kg, n = 3): 94.025 ± 6.814 mL
- AUC (in vivo; iv 70 mg/kg, n = 3, 70 mg/kg): 2.64 mg·min/mL and 2.642 mg·min/mL and 2.642 ± 0.190 mg·min/mL
- K10 (in vivo; [7]): 0.236 ± 0.043 min⁻¹
- K12 (in vivo; [7]): 0.050 ± 0.020 min⁻¹
- K21 (in vivo; [7]): 0.036 ± 0.002 min⁻¹
- T1/2a (distribution half-life, T1/2 α) (in vivo; [8]): 2.445 ± 0.549 min
- T1/2b (elimination half-life, T1/2 β) (in vivo; [8]): 24.328 ± 0.657 min
- half-life (in vivo; mouse, plasma, 70 mg/kg, two-compartmental model, n = 3, read-out: T1/2a (distribution half-life, T1/2 α)): 2.45 min
- half-life (in vivo; mouse, plasma, 70 mg/kg, two-compartmental model, n = 3, read-out: T1/2b (elimination half-life, T1/2 β)): 24.3 min
- clearance (in vivo; mouse, plasma, iv 70 mg/kg, n = 3, read-out: CLs (systemic clearance)): 22.4 ± 5.46 mL/min
- MRT (in vivo; mouse, plasma, iv 70 mg/kg, noncompartmental model, n = 3, read-out: MRT (mean residence time) (converted)): 9.3 min
- Plasma half-life [2]: 90 to 210 min
- Time after injection up to which measurable in tissues [3]: ≤ 2 h
- Accumulation in organs (liver, intestine) ([3]; 70 mg/kg): accumulated in liver immediately after its distribution phase (10 min) and then redistributed to small intestine (60 min); also recorded: high and fast accumulation in liver
- Presence in the brain ([3]; brain): no detectable amount of drug was found in the brain
- logP [4]: -1.4
- Solubility in aqueous solution ([5]; pH4): 0.08 mg/mL (≈ 0.176 mM)
- Solubility in aqueous solution ([5]; pH8): 58.17 mg/mL (≈ 128 mM)

Compound: Nc1ccn([C@@H]2O[C@H](CO)[C@@H](O)C2(F)F)c(=O)n1 [Gemcitabine]
- AUC [6]: 118.55 µg·min/mL
- T1/2 α [6]: 59.4 min
- T1/2 β [6]: 673.8 min
- clearance [6]: 0.654 mL/min
